This is an account of results in US10045999B2, “Nutritional composition for the stimulation of muscle protein synthesis” (N. V. Nutricia, priority 2010, dated 2018).

Marks after values point to notes of the source that are not given here.

The assay has as its system C2C12 myotubes. Kind of assay: Protein synthesis rate (FSR) in C2C12 myotubes after pretreatment with 1,25(OH)2 Vitamin D3, with or without leucine and insulin. It is filed as cell-based, mouse. The settings on record: for increase in muscle protein synthesis rate: C2C12 myotubes treated only with vitamin D3, with leucine alone, or with both; for change (%) in protein synthesis rate vs no pretreatment with vitamin D3: 72 h pretreatment. As to the method: An experimental in vitro study is performed to evaluate the synergistic or additional action of leucine and vitamin D on intracellular pathways regulating protein synthesis in muscle cells.
C2C12 mouse myoblasts are obtained from the American Type Culture Source Collection (no. CRL-1772). Myoblasts are cultured at 37° C. in an atmosphere of 5% CO2 in grown medium consisting of Dulbecco's modified Eagle's medium (DMEM) supplemented with 10% foetal calf serum and antibiotics. Myotube C2C12 differentiation is induced by withdrawing foetal calf serum from confluent cells and adding 10 μg/ml insulin, 5 μg/ml transferrin and 2% horse serum.
Confluent C2C12 myotubes are treated with vehicles alone or with different doses of 1,25(OH)2 D3. Subsequently, the cells are deprived of horse serum by incubation in a serum-free medium for the two remaining hours. During this deprivation period, different amounts of leucine and insulin are added to the medium before harvesting cells.
Medium with or without leucine supplementation are used to assess the synergistic or additional action of leucine and vitamin D on intracellular pathways regulating protein synthesis (Akt, mTOR) and/or on direct measure of protein synthesis.
Protein synthesis rate (FSR) in C2C12 myotubes after 72 h pretreatments with 0, 1 or 10 nm of 1,25(OH)2 Vitamin D3 is depicted in FIG. 1.
FIG. 1: Protein synthesis rate (FSR) in C2C12 myotubes after 72 h pretreatments with 0, 1 or 10 nm of 1,25(OH)2 Vitamin D3.

Take `C=C1/C(=C\C=C2/CCC[C@]3(C)[C@@H]([C@H](C)CCCC(C)(C)O)CC[C@@H]23)C[C@@H](O)C[C@@H]1O` [Vitamin D, 1,25-dihydroxycholecalciferol]: the “increase in muscle protein synthesis rate” value is 14.3%. For the same compound, the “effect on muscle protein synthesis (in words)” value (C2C12 myotubes, vitamin D3 dose 1 or 10 nM) is on record as “can stimulate muscle protein synthesis independently of leucine presence”. For the setting “[Vitamin D] = 1 nM, Ins + leu, vs [Vit D] = 0 Ins + leu”, the “change (%) in protein synthesis rate vs no pretreatment with vitamin D3” value (from here on “change (%) … vs no pretreatment with vitamin D3”) was 9.8* %. Moreover, the “change (%) … vs no pretreatment with vitamin D3” value ([Vitamin D] = 1 nM, No stim, vs [Vit D] = 0 No stim) was 14.0* %. Besides, the “change (%) … vs no pretreatment with vitamin D3” value ([Vitamin D] = 10 nM, Ins + leu, vs [Vit D] = 0 Ins + leu) is 14.3* %. For the same compound, the “change (%) … vs no pretreatment with vitamin D3” value ([Vitamin D] = 10 nM, No stim, vs [Vit D] = 0 No stim) is recorded as 14.3* %.

As for `CC(C)C[C@H](N)C(=O)O` [leucine, L-leucine], the “increase in muscle protein synthesis rate” value amounted to 10.7%.
